Experimental data as given in article PMC11564790 (Synthetic and Systems Biotechnology, 2024).
pKd: −log10 of the molar value.

Target: MBP-fused YpsR (1-179); YpsR-MBP; heading also 'YpeR' (Yersinia pseudotuberculosis, UniProt Q669I5)
Details: read-out: Dissociation constant

Chain of MBP-fused YpsR (1-179); YpsR-MBP; heading also 'YpeR' (Q669I5 1-179 limits assumed): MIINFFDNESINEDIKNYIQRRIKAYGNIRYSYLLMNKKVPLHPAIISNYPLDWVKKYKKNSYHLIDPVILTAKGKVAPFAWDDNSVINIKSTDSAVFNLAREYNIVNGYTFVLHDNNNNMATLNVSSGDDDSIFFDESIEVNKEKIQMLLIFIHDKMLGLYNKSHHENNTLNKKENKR

Point of comparison: `CCCCCCCC(=O)N[C@H]1CCOC1=O` [C8], pKd 4.81. Against it:
- CCCCCCCC(=O)CC(=O)N[C@H]1CCOC1=O [3OC10] — 0.97 log units lower, 3.84
- CCCCCCCCCC(=O)CC(=O)N[C@H]1CCOC1=O [3OC12] — 0.92 log units lower, 3.89
- CCCCCCCCCCCC(=O)CC(=O)N[C@H]1CCOC1=O [3OC14] — within 0.2 log units, 4.74
- CCCCCCCCCC(=O)N[C@H]1CCOC1=O [C10] — within 0.2 log units, 4.67
- CCCCCC(=O)N[C@H]1CCOC1=O [C6] — 0.37 log units higher, 5.18
- CCCC(=O)CC(=O)N[C@H]1CCOC1=O [3OC6] — 1.08 log units higher, 5.89
- CCCCCC(=O)CC(=O)N[C@H]1CCOC1=O [3OC8] — within 0.2 log units, 4.62
